Data set [1] deals with small mesenteric arteries. Briefly: Acetylcholine-induced relaxation of small mesenteric arteries from healthy and diabetic BKS mice (ex vivo). On the set-up: species or system male BKS(D)-Leprdb/JOrlRj mice. The method, then:
In these experiments, healthy control mice of different ages and diabetic adult mice were used and the relaxation measurements were performed as described in Example 1.
Healthy male BKS(D)-Leprdb/JOrlRj heterozygous mice between 14-16 and 24-25 weeks of age, and diabetic homozygous mice between 16-17 weeks of age were tested respectively. The results of the isometric tension studies are shown in FIGS. 2, A), B) and C) respectively.

Data set [2] relates to vascular smooth muscle cells (VSMCs) potassium currents. Briefly: Whole-cell patch-clamp of K+ outward currents in isolated vascular smooth muscle cells. Format: cell-based, rat. The following applies: LDN-27219 3·10^−5 mol/L 12 min; VA-5 5·10^−5 mol/L one hour incubation. The method, then:
For isolation of VSMCs, rat mesenteric arteries were dissected as previously described, opened longitudinally and stored in ice-cold dissociation solution containing (mmol/L): 119 NaCl, 4.7 KCl, 1.18 KH2PO4, 1.17 MgSO4, 24.9 NaHCO3, 0.027 EDTA, and 11 glucose, pH=7.4. Arteries were then equilibrated during 10 min in a dissociation solution with bovine albumin serum (BSA; 1 mg/mL) at 37° C. and then exposed to the same solution supplemented with papain (0.5 mg/mL; Worthington Biochemical Corp., Lakewood, N.J., USA) and dithiothreitol (DTT; 1 mg/mL) at 37° C. for 8 min. Arteries were then washed in ice-cold dissociation solution and moved to dissociation solution containing BSA (1 mg/mL) and collagenase (0.7 mg/mL type F and 0.4 mg/mL type H; Worthington Biochemical Corp.) at 37° C. for 3 min. […]
Membrane currents were recorded under the whole-cell configuration of the patch-clamp technique using an Axon Multiclamp 700A amplifier (Axon instruments, Molecular Devices, CA, USA). […] Current-voltage relations were determined using 600 ms voltage ramps from −100 to 160 mV and a holding potential (Vh) of −65 mV for SMCs.
Amplitudes of K^+-outward currents were measured in control conditions and 12 min after the addition of LDN-27219 (3·10^−5 mol/L) to the extracellular solution by a perfusion system.
A general note: The patch-clamp technique gives a direct electrical read-out from membranes.

A short description of data set [3]: Pharmacokinetic study, single intravenous dose, non-compartmental model. Format: in vivo. The following applies: mouse, blood, single 2 mg/kg intravenous dose, mice.
For data set [4], the system named is healthy male BKS(D)-Leprdb/JOrlRj heterozygous mice. In words: Erectile function in vivo, peak intracavernosal pressure (PICP) over MAP. The note with it: preliminary in vivo studies.
The subject of data set [5] is small mesenteric arteries. In words: Acetylcholine-induced endothelium-dependent relaxation of phenylephrine pre-contracted small mesenteric arteries, isometric myograph (ex vivo). Set-up: species or system Male Wistar rats. The method, then:
Small mesenteric arteries were mounted in microvascular myographs (Danish Myotechnology, Aarhus, Denmark) using two 40 μm wires and stretched to their optimal diameter for isometric tension recordings, which corresponded to 0.9 times the estimated internal diameter at 100 mmHg of transmural pressure. PSS solution in the myograph bath was heated to 37° C. and continuously bubbled with 5% CO2 in air to maintain pH (7.4). The vessel viability was tested at the beginning of each experiment by measuring the vasoconstrictor responses to a solution with a high K^+ concentration (KPSS), equivalent to PSS except that NaCl was exchanged for KCl on an equimolar basis, giving a final concentration of 123.7 mmol/L K^+ and the presence of endothelium was confirmed by addition of acetylcholine (ACh) (10^−5) after pre-constriction with noradrenaline (5·10^−6 mol/L), arteries with less than 75% of relaxation were discarded.
Mesenteric arteries from rats of different age were incubated with (10^−6 mol/L) LDN-27219 or vehicle for 25 minutes and pre-contracted with phenylephrine (Phe) (10^−5 mol/L). Then cumulative addition of acetylcholine (ACh) caused the relaxation of the mesenteric arteries and the concentration-response curves were constructed.
Rats of 5-7 weeks age, about 12 weeks age, and more than 30 weeks of age were tested respectively. The results of the isometric tension studies are shown in FIGS. 1, A), B) and C) respectively, each representing a different their age group.
The small mesenteric arteries were prepared in the same way is described in example 1.

Data set [6] has as its system Male Wistar rats. In words: Mean arterial pressure (MAP) in vivo measurement after intrajugular infusion. The method, then:
For ‘in vivo’ experiments Wistar rats of different age were fasted 8 h before anesthesia with 35 mg/kg of S-ketamine and 50 mg/kg of pentobarbital sodium administered intraperitoneally.
Male Wistar rats with 12-14 and 30-35 weeks of age were anesthetized with s-ketamine (35 mg/kg) and pentobarbital (50 mg/kg) and placed on a heated blanket to maintain body temperature at 37° C. ECG needles were installed for electrocardiographic measurements and a solid state catheter (Millar Inc, Houston, USA) was introduced into the carotid artery to measure MAP. MAP and electrocardiographic data was continuously recorded on a computerized data acquisition system (PowerLab, ADInstruments). Adequate depth of anesthesia was checked periodically by the absence of the toe pinch withdrawal effect and ⅓ of the initial dose of anesthetics was administered intraperitoneally when needed (usually each 1½ h). Changes in MAP and electrocardiographic signal in response to intrajugular infusion during 3 minutes of different doses of LDN-27219 and the corresponding vehicle (PEG-400) were studied.
The Area Under the Curve (AUC) was calculated using Graphpad Prism 5.1 (GraphPad Software, San Diego, Calif., USA) for each response to the change in MAP that was collected during the experiments in example 3. The AUC gives information about the maximal response, and about the duration of the effect.
Rats of different age in these experiments were anesthetized, prepared and catheterized as described in Example 3.

As a reminder, the clearance is the rate of elimination divided by the concentration. A high value points to efficient removal. By half-life is commonly meant the time in which the quantity being followed falls by half. A high value points to slow loss.

Entries after “also recorded” stand apart in the source; their conditions may differ.

As to `NNC(=O)CSc1nc2scc(-c3ccccc3)c2c(=O)n1-c1ccccc1` [LDN-27219], the “endothelium-dependent relaxation induced by acetylcholine, compared to vehicle” value in data set [1] (LDN-27219 3·10^−6 mol/L, healthy and diabetic mice) was “more potent endothelium-dependent relaxation”. The “dependence of the effect on age and diabetes” value in data set [1] (healthy mice 14-16 and 24-25 weeks, diabetic mice 16-17 weeks) was “more pronounced in older mice, and particularly pronounced in diabetic mice”. In addition, the “potassium currents compared to control conditions” value in data set [2] is reported as “potassium currents significantly bigger”. In data set [3], the clearance was 52.3 mL/min/kg and the half-life was 293 min. Further, the Vd in data set [3] (read-out: Volume of distribution) came out at 21.4 L/kg. In data set [4], the “erectile function, peak intracavernosal pressure (PICP) over MAP” value is reported as “increased erectile function”. Further, in data set [5] (LDN-27219 10^−6 mol/L with VA-5 10^−5 mol/L, ≈12 week rats), the “LDN-27219 potentiation of ACh-induced vasodilation in presence of irreversible TG2 inhibitor” value is recorded as “reduced or completely inhibited”. In addition, the “endothelium-dependent relaxation induced by acetylcholine, compared to vehicle” value in data set [5] (LDN-27219 10^−6 mol/L, 25 min incubation, Phe 10^−5 mol/L pre-contraction, rats of different age) is listed as “more potent endothelium-dependent relaxation; also recorded: increased the response to ACh”. In data set [5] (LDN-27219 10^−6 mol/L, rats 6-7, ≈12 and >30 weeks old), the “age dependence of the effect on acetylcholine-induced relaxation” value is given as “more pronounced in old rats, than in young rats”. In data set [6] (LDN-27219 0.1, 1.0 and 2.0 mg/kg, intrajugular infusion during 3 minutes, carotid artery), the “mean blood pressure (MAP)” value is “lowers the mean blood pressure”. The “age dependence of antihypertensive effect (AUC of MAP)” value in data set [6] (rats >30 weeks vs 12-14 weeks old) was “greater effect of LDN-27219 in older animals”.

Values taken from patent US20210308138A1, “TISSUE TRANSGLUTAMINASE MODULATORS FOR MEDICINAL USE” (Aarhus Universitet, priority 2018, published 2021).
